Results taken from ChEMBL document CHEMBL1133765, “QSAR model for drug human oral bioavailability” (J Med Chem, 2000).

Legend:
[1] = octanol/water
clinical = details: human, in vivo, po
physchem [2] = test: physchem
physchem [3] = details: octanol/water, pH 6.5
physchem [4] = details: octanol/water
[5] = octanol/water; remark: listed apart in the source

Row | Compound | delta logD [1] | bioavailability (clinical; F) | pKa (physchem [2]) | logD (physchem [3]) | bioavailability (clinical) | logD (physchem [4]; pH 6.5) | logD (physchem [4]; pH 6.5, logD) | delta logD [5]
1 | CCCNC1CCc2nc(N)sc2C1 (stereo not drawn) | -0.9 | ≥ 80% | 11 | -2.9 | – | – | – | –
2 | NC(=O)CCCCc1ccccc1 | 0 | ≥ 80% | – | 0.13 | – | – | – | –
3 | O=[N+]([O-])C1O[C@H]2[C@H](OC[C@@H]2O)[C@@H]1O (stereo partly drawn) | 0 | ≥ 80% | – | -0.4 | – | – | – | –
4 | O=[N+]([O-])C1O[C@H]2[C@H](OC[C@H]2O)[C@H]1O (stereo partly drawn) | 0 | ≥ 80% | – | -0.15 | – | – | – | –
5 | CCO [ALCOHOL] | – | > 80% | – | – | – | – | – | –
6 | Oc1ncnc2[nH]ncc12 [ALLOPURINOL] | 0 | – | – | -0.55 | ≥ 80% | – | – | –
7 | C=CCc1ccccc1OCC(O)CNC(C)C (stereo not drawn) [ALPRENOLOL] | -0.89 | ≤ 20% | – | 0.4 | – | – | – | –
8 | CCC1(CCC(C)C)C(=O)NC(=O)NC1=O [AMOBARBITAL] | 0.13 | – | – | 2.05 | ≥ 80% | – | – | –
9 | CC(C)NCC(O)COc1ccc(COCCOC(C)C)cc1 (stereo not drawn) [BISOPROLOL] | -0.89 | – | 9.2 | -0.83 | – | – | – | –
10 | CCCCNc1cc(C(=O)O)cc(S(N)(=O)=O)c1Oc1ccccc1 [BUMETANIDE] | 0.9 | ≥ 80% | – | -1.84 | – | – | – | –
11 | NC(=O)N1c2ccccc2C=Cc2ccccc21 [CARBAMAZEPINE] | 0 | ≥ 80% | – | – | – | – | – | –
12 | CC(C)(C)NCC(O)COc1cccc2c1CCC(=O)N2 (stereo not drawn) [CARTEOLOL] | -0.89 | ≥ 80% | 9.2 | -1.35 | – | – | – | –
13 | CN(C)CCC(c1ccc(Cl)cc1)c1ccccn1 (stereo not drawn) [CHLORPHENIRAMINE] | -0.89 | – | – | 0.69 | – | – | – | –
14 | CCCNC(=O)NS(=O)(=O)c1ccc(Cl)cc1 [CHLORPROPAMIDE] | 0.89 | ≥ 80% | 5 | 0.76 | – | – | – | –
15 | CN1C(=O)CC(=O)N(c2ccccc2)c2cc(Cl)ccc21 [CLOBAZAM] | 0 | – | – | 0.95 | ≥ 80% | – | – | –
16 | CN(C)CCCN1c2ccccc2CCc2ccc(Cl)cc21 [CLOMIPRAMINE] | – | – | – | 2.49 | – | – | – | –
17 | O=c1ccc2ccccc2o1 [COUMARIN] | – | < 20% | – | – | – | – | – | –
18 | CC1=NS(=O)(=O)c2cc(Cl)ccc2N1 [DIAZOXIDE] | 0.03 | ≥ 80% | 8.5 | 1.2 | – | – | – | –
19 | CC(C)N(CCC(C(N)=O)(c1ccccc1)c1ccccn1)C(C)C (stereo not drawn) [DISOPYRAMIDE] | -0.9 | – | 10.4 | -1.08 | ≥ 80% | – | – | –
20 | O=c1[nH]c2ccccc2n1CCCN1CCC(n2c(=O)[nH]c3cc(Cl)ccc32)CC1 [DOMPERIDONE] | – | – | – | – | – | 2.83 | – | –
21 | N#Cc1ccccc1OCC(O)CNCCNC(=O)Cc1ccc(O)cc1 (stereo not drawn) [EPANOLOL] | -0.77 | ≤ 20% | 7.8 | -0.4 | – | – | – | –
22 | CCc1cccc2c3c([nH]c12)C(CC)(CC(=O)O)OCC3 (stereo not drawn) [ETODOLAC] | – | ≥ 80% | 4.7 | – | – | – | – | –

Row | Compound | delta logD [1] | bioavailability (clinical; F) | pKa (physchem [2]) | logD (physchem [3]) | bioavailability (clinical) | logD (physchem [4]; pH 6.5) | logD (physchem [4]; pH 6.5, logD) | delta logD [5]
23 | O=C(NCC1CCCCN1)c1cc(OCC(F)(F)F)ccc1OCC(F)(F)F (stereo not drawn) [FLECAINIDE] | -0.9 | ≥ 80% | – | 0.24 | – | – | – | –
24 | CC(C(=O)O)c1ccc(-c2ccccc2)c(F)c1 (stereo not drawn) [FLURBIPROFEN] | 0.9 | – | 4.2 | 1.81 | ≥ 80% | – | – | –
25 | Cc1ccc(C)c(OCCCC(C)(C)C(=O)O)c1 [GEMFIBROZIL] | 0.89 | ≥ 80% | 4.8 | 1.47 | – | – | – | –
26 | COc1ccc(Cl)cc1C(=O)NCCc1ccc(S(=O)(=O)NC(=O)NC2CCCCC2)cc1 [GLYBURIDE] | 0.87 | ≥ 80% | 5.3 | 1.85 | – | – | – | –
27 | CN1C(=O)NC(=O)C(C)(C2=CCCCC2)C1=O (stereo not drawn) [HEXOBARBITAL] | 0.04 | – | 8.3 | 1.48 | ≥ 80% | – | – | –
28 | NNc1nncc2ccccc12 [HYDRALAZINE] | -0.61 | ≤ 20% | – | 0.14 | – | – | – | –
29 | Nc1cc(-c2ccncc2)c[nH]c1=O [INAMRINONE] | -0.02 | ≥ 80% | 5.2 | -0.72 | – | – | – | –
30 | CNC1(c2ccccc2Cl)CCCCC1=O (stereo not drawn) [KETAMINE] | – | – | – | 1.14 | ≤ 20% | – | – | –
31 | O=C(c1ccccc1)c1ccc2n1CCC2C(=O)O (stereo not drawn) [KETOROLAC] | 0.9 | ≥ 80% | – | -1.34 | – | – | – | –
32 | Cc1c(OCC(F)(F)F)ccnc1C[S+]([O-])c1nc2ccccc2[nH]1 (stereo not drawn) [LANSOPRAZOLE] | – | – | – | 1.73 | ≥ 80% | – | – | –
33 | CN(CCCN1c2ccccc2CCc2ccccc21)CC(=O)c1ccc(Cl)cc1 [LOFEPRAMINE] | -0.32 | ≤ 20% | 6.7 | 4.58 | – | – | – | –
34 | O=C1Nc2ccc(Cl)cc2C(c2ccccc2Cl)=NC1O (stereo not drawn) [LORAZEPAM] | 0 | – | – | – | ≥ 80% | – | – | –
35 | CC[C@H](C)C(=O)O[C@H]1C[C@@H](C)C=C2C=C[C@H](C)[C@H](CC[C@@H]3C[C@@H](O)CC(=O)O3)[C@H]21 [LOVASTATIN] | 0 | – | – | 4.26 | – | – | – | –
36 | CC(C)(C)NCC(O)c1cc(Cl)c(N)c(C(F)(F)F)c1 (stereo not drawn) [MABUTEROL] | -0.9 | – | 9.7 | -0.03 | ≥ 80% | – | – | –
37 | COC(=O)Nc1nc2ccc(C(=O)c3ccccc3)cc2[nH]1 [MEBENDAZOLE] | 0 | ≤ 20% | – | 2.83 | – | – | – | –
38 | CCC1(c2cccc(O)c2)CCCCN(C)C1 (stereo not drawn) [MEPTAZINOL] | -0.88 | – | 8.7 | 0.71 | ≤ 20% | – | – | –
39 | Sc1ncnc2nc[nH]c12 [MERCAPTOPURINE ANHYDROUS] | -0.72 | ≤ 20% | 7.6 | -1.12 | – | – | – | –
40 | COCCc1ccc(OCC(O)CNC(C)C)cc1 (stereo not drawn) [METOPROLOL] | – | 49% | – | – | – | – | -1.32 | –
41 | Cc1ncc([N+](=O)[O-])n1CCO [METRONIDAZOLE] | 0 | ≥ 80% | – | – | – | – | – | –
42 | Cc1[nH]c(=O)c(C#N)cc1-c1ccncc1 [MILRINONE] | -0.02 | ≥ 80% | 5.2 | 0.68 | – | – | – | –
43 | COc1ccc2cc(CCC(C)=O)ccc2c1 [NABUMETONE] | 0 | ≤ 20% | – | 2.83 | – | – | – | –
44 | Cc1ccnc2c1NC(=O)c1cccnc1N2C1CC1 [NEVIRAPINE] | – | – | – | 1.92 | ≥ 80% | – | – | –

Row | Compound | delta logD [1] | bioavailability (clinical; F) | pKa (physchem [2]) | logD (physchem [3]) | bioavailability (clinical) | logD (physchem [4]; pH 6.5) | logD (physchem [4]; pH 6.5, logD) | delta logD [5]
45 | COC(=O)C1=C(C)NC(C)=C(C(=O)OC)C1c1ccccc1[N+](=O)[O-] [NIFEDIPINE] | – | – | – | – | 79% | – | – | –
46 | O=C(O)CCc1nc(-c2ccccc2)c(-c2ccccc2)o1 [OXAPROZIN] | 0.84 | ≥ 80% | 5.8 | 3.41 | – | – | – | –
47 | O=C1OC(c2ccc(O)cc2)(c2ccc(O)cc2)c2ccccc21 [PHENOLPHTHALEIN] | 0 | ≤ 20% | – | 2.41 | – | – | – | –
48 | O=c1[nH]c2ccccc2n1C1CCN(CCCC(c2ccc(F)cc2)c2ccc(F)cc2)CC1 [PIMOZIDE] | – | – | 7.3 | – | – | 5.42 | – | –
49 | CC1CCCC(C)N1CCCC(O)(c1ccccc1)c1ccccn1 (stereo not drawn) [PIRMENOL] | -0.9 | ≥ 80% | 10.2 | -0.53 | – | – | – | –
50 | C[C@]12C=CC(=O)C=C1CC[C@@H]1[C@@H]2[C@@H](O)C[C@@]2(C)[C@H]1CC[C@]2(O)C(=O)CO [PREDNISOLONE] | – | – | – | – | – | – | – | 0
51 | C[C@]12C=CC(=O)C=C1CC[C@@H]1[C@@H]2C(=O)C[C@@]2(C)[C@H]1CC[C@]2(O)C(=O)CO [PREDNISONE] | – | > 80% | – | – | – | – | – | 0
52 | CCCN(CCC)S(=O)(=O)c1ccc(C(=O)O)cc1 [PROBENECID] | 0.9 | ≥ 80% | 3.4 | 0.11 | – | – | – | –
53 | CC(=O)[C@H]1CC[C@H]2[C@@H]3CCC4=CC(=O)CC[C@]4(C)[C@H]3CC[C@]12C [PROGESTERONE] | – | – | – | – | < 20% | – | – | 0
54 | C1COC(NC(C2CC2)C2CC2)=N1 [RILMENIDINE] | -0.9 | ≥ 80% | 9.3 | -0.94 | – | – | – | –
55 | Nc1ccc(S(=O)(=O)Nc2ncccn2)cc1 [SULFADIAZINE] | 0.65 | ≥ 80% | – | -0.39 | – | – | – | –
56 | CN1C(C(=O)Nc2ccccn2)=C(O)c2sccc2S1(=O)=O [TENOXICAM] | 0.88 | ≥ 80% | 5.1 | 0.56 | – | – | – | –
57 | CCN(CC)C(=O)N[C@H]1C[C@@H]2c3cccc4[nH]cc(c34)C[C@H]2N(C)C1 [TERGURIDE] | -0.32 | – | 6.8 | 2.05 | ≤ 20% | – | – | –
58 | C[C@]12CC[C@H]3[C@@H](CCC4=CC(=O)CC[C@@]43C)[C@@H]1CC[C@@H]2O [TESTOSTERONE] | – | – | – | – | < 20% | – | – | 0
59 | Cc1cccc(C)c1NC(=O)C(C)N (stereo not drawn) [TOCAINIDE] | -0.78 | ≥ 80% | – | -0.56 | – | – | – | –
60 | CCCCNC(=O)NS(=O)(=O)c1ccc(C)cc1 [TOLBUTAMIDE] | – | ≥ 80% | 5.3 | – | – | – | – | –
61 | Cc1ccc(C(=O)c2ccc(CC(=O)O)n2C)cc1 [TOLMETIN] | 0.9 | ≥ 80% | – | -0.21 | – | – | – | –
62 | COc1cc(Cc2cnc(N)nc2N)cc(OC)c1OC [TRIMETHOPRIM] | – | > 80% | – | – | – | – | – | –
63 | CCCC(CCC)C(=O)O [VALPROIC ACID] | 0.89 | ≥ 80% | – | 1.04 | – | – | – | –
64 | COc1ccc(C(CN(C)C)C2(O)CCCCC2)cc1 (stereo not drawn) [VENLAFAXINE] | – | – | – | -2.29 | ≤ 20% | – | – | –
65 | O=C(NCCNCC(O)COc1ccc(O)cc1)N1CCOCC1 (stereo not drawn) [XAMOTEROL] | -0.78 | ≤ 20% | 7.8 | -0.8 | – | – | – | –
